What was measured:
MCF7 cell line = settings: MCF7 after treatment with RA; versus all other genes; cited from earlier work
[1] = rat models of ischemia/reperfusion injury; cited from earlier work
platelets [2] = test: Platelet alpha granule secretion (P-selectin surface expression); type: cell-based, human; settings: in response to U46619; RA pre-treatment 1 hour
Experimental: (§1) To validate the predictive power of the developed framework, direct experimental evidence of the predicted mechanistic role of Rosmarinic acid (RA) in VD was sought. […] Therefore, whether RA influenced platelet activation in vitro was evaluated. As platelets can be stimulated through different activation pathways, RA effects can, in principle, occur in any of them. To test these different possibilities, platelets were pretreated with RA and then activated with: 1) glycoprotein VI by collagen or collagen-related peptide (Collagen/CRPXL); 2) protease-activated receptors-1,4 by thrombin receptor activator peptide-6 (TRAP-6); 3) prostanoid thromboxane receptor by the thromboxane A2 analogue (U46619); and 4) P2Y1/12 receptor stimulation by adenosine diphosphate (ADP). When the network distance between each stimulant receptor and the RA-VD-platelet module (FIG. 11A) was compared, it was observed that the receptors for Collagen/CRPXL, TRAP-6, and U46619 are closer than the random expectation, while the receptor for ADP is more distant (FIG. 11B). It is expected that platelets would be most affected by RA when treated with stimulants whose receptors are most proximal to the RA-VD-platelet module, i.e. Collagen/CRPXL, TRAP-6, and U46619. […] Percent-positive cells were determined by gating on fluorescence intensity compared to unstimulated samples.

A549 = A549 after treatment with RA; versus all other genes; cited from earlier work
platelets [3] = test: Integrin αIIbβ3 activation (fibrinogen binding); type: cell-based, human; settings: in response to U46619; RA pre-treatment 1 hour
Experimental: as §1

platelets [4] = test: Platelet functions after ADP stimulation (control, distant receptor); type: cell-based, human; settings: stimulant whose receptor is distant from the RA-VD-module (ADP)
Experimental: To validate the predictive power of the developed framework, direct experimental evidence of the predicted mechanistic role of Rosmarinic acid (RA) in VD was sought. […] Therefore, whether RA influenced platelet activation in vitro was evaluated. As platelets can be stimulated through different activation pathways, RA effects can, in principle, occur in any of them. To test these different possibilities, platelets were pretreated with RA and then activated with: 1) glycoprotein VI by collagen or collagen-related peptide (Collagen/CRPXL); 2) protease-activated receptors-1,4 by thrombin receptor activator peptide-6 (TRAP-6); 3) prostanoid thromboxane receptor by the thromboxane A2 analogue (U46619); and 4) P2Y1/12 receptor stimulation by adenosine diphosphate (ADP). […] Platelet aggregation was measured by turbidimetric aggregometry. […] Platelet aggregation was monitored for 6 minutes at 37° C. with a stir speed of 1000 rpm and the maximum extend of aggregation recorded using AGGRO/LINK®8 software. In some cases, dense granule release was simultaneously recorded by supplementing samples with Chrono-Lume® (Chrono-Log®, 395) according to the manufacturer's instructions. […] Percent-positive cells were determined by gating on fluorescence intensity compared to unstimulated samples.

O=C(/C=C/c1ccc(O)c(O)c1)O[C@H](Cc1ccc(O)c(O)c1)C(=O)O [rosmarinic acid]
perturbation scores for genes directly regulated by NFE2L2 (MCF7 cell line): higher perturbation scores
cardiac function [1]: restore cardiac function
alpha granule secretion (platelets [2]): dampened
perturbation scores for genes directly regulated by NFE2L2 (A549): higher perturbation scores
integrin αIIbβ3 activation (platelets [3]): dampened
platelet functions (platelets [4]): did not affect

— US20220184020A1, “Polyphenols as Modulators of Platelet Function” (Northeastern University, priority 2019, published 2022)
